# Columns and labels:
# Experiment in all cases: KINOMEscan competition binding
# Conditions in all cases: compound 10.0 µM
# CASK (human) = CASK (human) (UniProt O14936)
# CDK13 (human) = CDK13 (human) (UniProt Q14004)
# CHUK (human) = CHUK (human) (UniProt O15111)
# CRK2 (P.falciparum) = CRK2 (P.falciparum) (UniProt P61075)
# CSNK1E (human) = CSNK1E (human) (UniProt P49674)
# CSNK2A1 (human) = CSNK2A1 (human) (UniProt P68400)
# EPHB1 (human) = EPHB1 (human) (UniProt P54762)
# [1] = tested on: FLT3 (human), P36888 [D835Y]
# GRK4 (human) = GRK4 (human) (UniProt P32298)
# HIPK1 (human) = HIPK1 (human) (UniProt Q86Z02)
# IRAK4 (human) = IRAK4 (human) (UniProt Q9NWZ3)
# ITK (human) = ITK (human) (UniProt Q08881)
# LRRK2 (human) = LRRK2 (human) (UniProt Q5S007)
# LYN (human) = LYN (human) (UniProt P07948)
# MAP2K6 (human) = MAP2K6 (human) (UniProt P52564)
# MAP3K1 (human) = MAP3K1 (human) (UniProt Q13233)
# MAP3K13 (human) = MAP3K13 (human) (UniProt O43283)
# MAPK4 (human) = MAPK4 (human) (UniProt P31152)
# MAPK7 (human) = MAPK7 (human) (UniProt Q13164)
# MAPKAPK2 (human) = MAPKAPK2 (human) (UniProt P49137)
# MUSK (human) = MUSK (human) (UniProt O15146)
# MYLK4 (human) = MYLK4 (human) (UniProt Q86YV6)
# NIM1 (human) = NIM1 (human) (UniProt Q8IY84)
# OXSR1 (human) = OXSR1 (human) (UniProt O95747)
# PDPK1 (human) = PDPK1 (human) (UniProt O15530)
# PHKG1 (human) = PHKG1 (human) (UniProt Q16816)
# PHKG2 (human) = PHKG2 (human) (UniProt P15735)
# PIK3C2G (human) = PIK3C2G (human) (UniProt O75747)
# [2] = tested on: PIK3CA (human), P42336 [Q546K]
# PKN1 (human) = PKN1 (human) (UniProt Q16512)
# PLK4 (human) = PLK4 (human) (UniProt O00444)
# RPS6KA1 KD2 (human) = RPS6KA1 KD2 (human) (UniProt Q15418)
# STK24 (human) = STK24 (human) (UniProt Q9Y6E0)
# STK32B (human) = STK32B (human) (UniProt Q9NY57)
# STK35 (human) = STK35 (human) (UniProt Q8TDR2)
# TEK (human) = TEK (human) (UniProt Q02763)
# TGFBR2 (human) = TGFBR2 (human) (UniProt P37173)
# TLK1 (human) = TLK1 (human) (UniProt Q9UKI8)
# [3] = molecular target: TYK2 JH2 pseudokinase (human) (UniProt P29597)
# VRK2 (human) = VRK2 (human) (UniProt Q86Y07)
# WEE2 (human) = WEE2 (human) (UniProt P0C1S8)
# Chain of MYLK4 (human) (Q86YV6 whole entry, looked up): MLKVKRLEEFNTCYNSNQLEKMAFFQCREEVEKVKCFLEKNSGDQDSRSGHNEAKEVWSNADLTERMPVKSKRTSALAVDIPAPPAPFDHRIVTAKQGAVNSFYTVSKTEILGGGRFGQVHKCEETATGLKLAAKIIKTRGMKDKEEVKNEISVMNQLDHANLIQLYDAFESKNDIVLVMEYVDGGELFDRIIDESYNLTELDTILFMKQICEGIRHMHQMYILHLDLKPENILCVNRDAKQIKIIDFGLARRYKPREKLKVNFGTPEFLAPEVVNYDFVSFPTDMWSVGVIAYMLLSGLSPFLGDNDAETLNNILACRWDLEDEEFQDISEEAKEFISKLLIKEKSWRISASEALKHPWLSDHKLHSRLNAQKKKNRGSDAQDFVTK
# Chain of IRAK4 (human) (Q9NWZ3 whole entry, looked up): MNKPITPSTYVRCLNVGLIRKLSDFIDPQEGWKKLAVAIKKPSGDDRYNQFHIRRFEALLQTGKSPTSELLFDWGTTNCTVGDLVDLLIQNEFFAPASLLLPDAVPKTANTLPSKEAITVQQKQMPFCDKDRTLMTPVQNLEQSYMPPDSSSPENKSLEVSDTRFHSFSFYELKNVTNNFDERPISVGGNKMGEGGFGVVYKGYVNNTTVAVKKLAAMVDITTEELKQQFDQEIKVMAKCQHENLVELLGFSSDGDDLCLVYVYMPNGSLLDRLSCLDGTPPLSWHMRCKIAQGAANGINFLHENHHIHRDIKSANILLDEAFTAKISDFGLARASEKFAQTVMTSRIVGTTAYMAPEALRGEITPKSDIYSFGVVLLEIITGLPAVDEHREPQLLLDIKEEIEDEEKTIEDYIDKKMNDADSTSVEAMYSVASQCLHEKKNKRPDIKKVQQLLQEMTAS
# Chain of EPHB1 (human) (P54762 whole entry, looked up): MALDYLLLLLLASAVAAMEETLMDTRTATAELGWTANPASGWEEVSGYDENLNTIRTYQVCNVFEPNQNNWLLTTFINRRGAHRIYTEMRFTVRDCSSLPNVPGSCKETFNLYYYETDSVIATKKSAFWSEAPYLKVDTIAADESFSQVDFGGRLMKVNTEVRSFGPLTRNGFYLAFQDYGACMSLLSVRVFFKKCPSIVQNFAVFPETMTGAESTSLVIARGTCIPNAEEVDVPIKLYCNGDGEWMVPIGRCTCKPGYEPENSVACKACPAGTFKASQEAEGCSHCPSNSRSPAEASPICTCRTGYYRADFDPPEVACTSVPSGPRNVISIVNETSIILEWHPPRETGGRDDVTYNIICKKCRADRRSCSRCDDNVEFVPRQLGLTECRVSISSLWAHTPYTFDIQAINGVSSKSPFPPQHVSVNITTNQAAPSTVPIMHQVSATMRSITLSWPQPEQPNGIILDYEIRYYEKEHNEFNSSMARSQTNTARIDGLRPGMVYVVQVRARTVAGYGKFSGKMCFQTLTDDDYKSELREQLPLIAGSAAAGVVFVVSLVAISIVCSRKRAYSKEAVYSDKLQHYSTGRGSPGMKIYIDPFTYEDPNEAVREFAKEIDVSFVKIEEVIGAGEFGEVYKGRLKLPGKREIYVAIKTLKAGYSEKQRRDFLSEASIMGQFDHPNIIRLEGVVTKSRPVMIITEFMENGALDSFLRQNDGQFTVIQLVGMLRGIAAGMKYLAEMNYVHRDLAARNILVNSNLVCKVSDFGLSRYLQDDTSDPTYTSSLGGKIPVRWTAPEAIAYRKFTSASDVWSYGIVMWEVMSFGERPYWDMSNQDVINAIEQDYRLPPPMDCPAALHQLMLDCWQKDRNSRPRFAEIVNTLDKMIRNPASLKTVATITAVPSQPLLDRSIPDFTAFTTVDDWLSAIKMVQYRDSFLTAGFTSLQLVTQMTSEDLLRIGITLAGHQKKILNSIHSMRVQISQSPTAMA
# Chain of CHUK (human) (O15111 whole entry, looked up): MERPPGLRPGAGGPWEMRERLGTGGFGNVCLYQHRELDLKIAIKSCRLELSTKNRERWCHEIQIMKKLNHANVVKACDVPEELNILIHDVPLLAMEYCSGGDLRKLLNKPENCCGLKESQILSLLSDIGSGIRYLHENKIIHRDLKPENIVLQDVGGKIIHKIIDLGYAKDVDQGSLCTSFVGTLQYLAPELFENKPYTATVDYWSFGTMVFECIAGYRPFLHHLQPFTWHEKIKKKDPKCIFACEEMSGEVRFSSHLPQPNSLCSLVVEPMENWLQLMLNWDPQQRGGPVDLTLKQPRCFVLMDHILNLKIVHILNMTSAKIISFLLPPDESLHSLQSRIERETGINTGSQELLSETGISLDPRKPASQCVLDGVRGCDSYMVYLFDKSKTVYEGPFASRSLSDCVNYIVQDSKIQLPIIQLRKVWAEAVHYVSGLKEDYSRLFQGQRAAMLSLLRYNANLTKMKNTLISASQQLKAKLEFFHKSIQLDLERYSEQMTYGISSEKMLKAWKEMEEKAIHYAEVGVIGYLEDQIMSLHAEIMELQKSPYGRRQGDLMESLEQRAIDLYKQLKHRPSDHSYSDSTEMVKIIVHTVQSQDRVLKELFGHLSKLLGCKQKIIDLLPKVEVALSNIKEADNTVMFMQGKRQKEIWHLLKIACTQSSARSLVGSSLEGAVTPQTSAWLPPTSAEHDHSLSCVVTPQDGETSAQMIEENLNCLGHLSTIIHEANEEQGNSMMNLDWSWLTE
# Chain of PKN1 (human) (Q16512 whole entry, looked up): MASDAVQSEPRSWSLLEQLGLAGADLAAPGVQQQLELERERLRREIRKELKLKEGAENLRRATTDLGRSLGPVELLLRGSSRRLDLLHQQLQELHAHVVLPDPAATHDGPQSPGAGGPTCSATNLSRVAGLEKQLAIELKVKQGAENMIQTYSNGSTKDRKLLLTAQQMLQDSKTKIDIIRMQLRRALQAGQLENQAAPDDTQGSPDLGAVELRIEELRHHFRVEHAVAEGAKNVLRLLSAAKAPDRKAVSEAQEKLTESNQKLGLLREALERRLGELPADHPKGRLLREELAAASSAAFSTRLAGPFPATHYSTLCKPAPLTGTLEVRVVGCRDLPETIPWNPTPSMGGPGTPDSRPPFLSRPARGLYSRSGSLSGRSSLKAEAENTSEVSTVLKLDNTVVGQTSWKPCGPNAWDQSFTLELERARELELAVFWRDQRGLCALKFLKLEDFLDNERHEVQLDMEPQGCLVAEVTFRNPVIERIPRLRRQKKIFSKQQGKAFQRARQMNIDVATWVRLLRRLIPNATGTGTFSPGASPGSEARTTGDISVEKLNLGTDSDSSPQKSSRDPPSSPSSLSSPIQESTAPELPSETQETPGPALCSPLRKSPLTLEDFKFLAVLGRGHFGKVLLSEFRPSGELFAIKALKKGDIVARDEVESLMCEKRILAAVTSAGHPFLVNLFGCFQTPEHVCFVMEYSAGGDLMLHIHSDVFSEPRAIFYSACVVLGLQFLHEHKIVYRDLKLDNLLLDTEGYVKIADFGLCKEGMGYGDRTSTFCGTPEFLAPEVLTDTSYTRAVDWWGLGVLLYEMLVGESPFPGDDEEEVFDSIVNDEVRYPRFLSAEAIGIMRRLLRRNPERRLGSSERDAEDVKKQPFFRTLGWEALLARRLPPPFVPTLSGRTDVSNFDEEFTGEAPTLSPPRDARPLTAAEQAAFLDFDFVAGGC
# Chain of MAP3K13 (human) (O43283 whole entry, looked up): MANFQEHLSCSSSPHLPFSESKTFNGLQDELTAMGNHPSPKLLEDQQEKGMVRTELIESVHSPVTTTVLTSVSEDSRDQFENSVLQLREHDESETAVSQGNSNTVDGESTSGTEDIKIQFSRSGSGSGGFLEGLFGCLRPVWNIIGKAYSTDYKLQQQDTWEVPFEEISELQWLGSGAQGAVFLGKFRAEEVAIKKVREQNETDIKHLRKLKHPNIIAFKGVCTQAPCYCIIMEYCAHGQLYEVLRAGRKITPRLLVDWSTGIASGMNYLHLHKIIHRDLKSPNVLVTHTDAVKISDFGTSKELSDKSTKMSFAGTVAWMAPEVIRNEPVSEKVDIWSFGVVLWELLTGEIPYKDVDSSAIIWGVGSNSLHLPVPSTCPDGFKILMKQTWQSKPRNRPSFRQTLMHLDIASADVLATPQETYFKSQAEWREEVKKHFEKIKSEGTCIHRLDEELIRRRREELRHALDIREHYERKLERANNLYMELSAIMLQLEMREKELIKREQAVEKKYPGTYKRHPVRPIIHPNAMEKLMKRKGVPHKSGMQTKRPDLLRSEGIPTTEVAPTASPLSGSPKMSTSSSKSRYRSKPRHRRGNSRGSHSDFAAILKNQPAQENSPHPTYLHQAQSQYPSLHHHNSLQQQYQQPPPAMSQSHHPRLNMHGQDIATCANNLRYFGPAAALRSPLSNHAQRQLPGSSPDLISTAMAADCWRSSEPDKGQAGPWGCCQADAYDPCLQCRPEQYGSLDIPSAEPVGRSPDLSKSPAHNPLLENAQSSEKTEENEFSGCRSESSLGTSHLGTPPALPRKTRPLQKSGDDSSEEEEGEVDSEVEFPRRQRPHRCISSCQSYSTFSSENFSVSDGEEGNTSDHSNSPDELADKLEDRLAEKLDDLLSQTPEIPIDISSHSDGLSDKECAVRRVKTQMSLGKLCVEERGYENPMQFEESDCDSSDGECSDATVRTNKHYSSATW
# Chain of MAP2K6 (human) (P52564 whole entry, looked up): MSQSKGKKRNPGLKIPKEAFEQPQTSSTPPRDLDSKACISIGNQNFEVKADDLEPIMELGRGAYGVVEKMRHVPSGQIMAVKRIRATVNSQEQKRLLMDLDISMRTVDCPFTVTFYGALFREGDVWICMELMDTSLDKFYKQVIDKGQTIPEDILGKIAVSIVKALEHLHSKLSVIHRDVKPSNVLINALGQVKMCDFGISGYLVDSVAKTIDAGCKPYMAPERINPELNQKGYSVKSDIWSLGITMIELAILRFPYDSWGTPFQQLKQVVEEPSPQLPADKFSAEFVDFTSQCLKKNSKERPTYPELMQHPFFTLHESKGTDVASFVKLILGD
smiles,measurement,setting,value
COc1ccc(-c2ccc3c(N4CCOCC4)nc(N4C[C@@H](C)O[C@@H](C)C4)nc3n2)cc1CO,"kinase still bound, per cent of control",CASK (human),100%
same,per cent of control,CDK13 (human),100%
same,"kinase still bound, per cent of control",CHUK (human),72%
same,"kinase still bound, per cent of control",CRK2 (P.falciparum),90%
same,"kinase still bound, per cent of control",CSNK1E (human),87%
same,"kinase still bound, per cent of control",CSNK2A1 (human),96%
same,"kinase still bound, per cent of control",EPHB1 (human),100%
same,"kinase still bound, per cent of control",[1],86%
same,"kinase still bound, per cent of control",GRK4 (human),67%
same,"kinase still bound, per cent of control",HIPK1 (human),97%
same,"kinase still bound, per cent of control",IRAK4 (human),99%
same,"kinase still bound, per cent of control",ITK (human),88%
same,"kinase still bound, per cent of control",LRRK2 (human),100%
same,"kinase still bound, per cent of control",LYN (human),100%
same,"kinase still bound, per cent of control",MAP2K6 (human),83%
same,"kinase still bound, per cent of control",MAP3K1 (human),100%
same,"kinase still bound, per cent of control",MAP3K13 (human),100%
same,"kinase still bound, per cent of control",MAPK4 (human),100%
same,"kinase still bound, per cent of control",MAPK7 (human),100%
same,"kinase still bound, per cent of control",MAPKAPK2 (human),92%
same,"kinase still bound, per cent of control",MUSK (human),100%
same,"kinase still bound, per cent of control",MYLK4 (human),92%
same,"kinase still bound, per cent of control",NIM1 (human),97%
same,"kinase still bound, per cent of control",OXSR1 (human),72%
same,"kinase still bound, per cent of control",PDPK1 (human),100%
same,"kinase still bound, per cent of control",PHKG1 (human),93%
same,"kinase still bound, per cent of control",PHKG2 (human),77%
same,"kinase still bound, per cent of control",PIK3C2G (human),43%
same,"kinase still bound, per cent of control",[2],2.8%
same,"kinase still bound, per cent of control",PKN1 (human),94%
same,"kinase still bound, per cent of control",PLK4 (human),100%
same,"kinase still bound, per cent of control",RPS6KA1 KD2 (human),100%
same,"kinase still bound, per cent of control",STK24 (human),89%
same,"kinase still bound, per cent of control",STK32B (human),100%
same,"kinase still bound, per cent of control",STK35 (human),96%
same,"kinase still bound, per cent of control",TEK (human),71%
same,"kinase still bound, per cent of control",TGFBR2 (human),92%
same,"kinase still bound, per cent of control",TLK1 (human),94%
same,"kinase still bound, per cent of control",[3],86%
same,"kinase still bound, per cent of control",VRK2 (human),87%
same,"kinase still bound, per cent of control",WEE2 (human),100%
